Laboratory results reported in patent US20230355815A1, “ACTIVE DELIVERY OF RADIOTRACERS ACROSS THE BLOOD BRAIN BARRIER” (The Board of Trustees of the Leland Stanford Junior …, priority 2021, published 2023).

Key:
TSPO = target: T1, TSPO (Mus musculus, UniProt P50637); assay: TSPO-PET/CT imaging of EAE mice; assay type: in vivo
T1 construct: endogenous in cells; host or cells: tissues of living C57BL/6 mice (EAE and naive)
Experimental: Mice were categorized as pre-symptomatic (pre; score 0, >1 g weight loss in 48 h), low (score 0.5-2), or high EAE (score 2.5-4.5). Anti-TREM1 monoclonal antibody (mAb) was DOTA-conjugated and radiolabeled with ^64Cu. PET/CT imaging was performed 20 hours post-injection of [^64Cu]TREM1-mAb (95-120 μCi, >99% RCP) or 50-60 min after TSPO-targeted radiotracer [^18F]GE-180 (231-269 μCi, >99% RCP). Following PET, mice were perfused to remove unbound intravascular tracer and radioactivity in central nervous system (CNS) tissues was measured using a gamma counter.
TREMl-PET is a more sensitive tool for detecting neuroinflammation in EAE compared to TSPO-PET Next, we examined the sensitivity of TREMl-PET compared to the gold standard approach for assessing neuroinflammation in vivo for both preclinical and clinical research—TSPO-PET. Naive and EAE mice were injected with [^18F]GE-180. a highly sensitive and selective tracer for TSPO in rodents (26), and PET images were acquired 50-60 min following tracer administration. […] Specifically, peritoneum adhesions encompassing the spleen. mesentery, and stomach, as well as abdominal granulomatous inflammation, have been reported in mice injected with CFA (27). […]
[^18F]GE-180 was synthesized as previously described (46). Chemical and radiochemical purity were determined by reverse-phase analytical HPLC (Phenomenex Luna column, 150×4.6 mm. particle size 3 μm. pore size 100 A) using a 11 min 50-95% gradient (0.1 mg/mL ascorbic acid in H2O:MeCN. monitored by gamma detection and UV at 254 and 280 nm). […]
PET images were analyzed using Vivoquant software (version 4.0. inviCRO) and visualized using Inveon Research Workspace (IRW, version 4.0: Siemens). Brain uptake was quantified as previously described (47). lo brief, a 3-dimensional mouse brain atlas was utilized to obtain tracer uptake values in a priori regions of interest (whole brain, pons. medulla. and cerebellum). Cervical/thoracic and lumbar spinal cord quantification was obtained via segmentation and exclusion of the vertebral column. […]

TREM1 = conditions: animal models of sepsis; cited from earlier work
TREM1 signaling = assay: LP17 treatment study in EAE mice; assay type: in vivo, mouse; conditions: vs saline
Experimental: Spinal cords were further analyzed via high-resolution autoradiography. Flow cytometry was performed on CNS tissues using TREM1, CD45, CD11b, CD11c, CD3, and Ly-6G to delineate immune cell populations. Quantitative PCR was performed to assess changes in mRNA expression. LP17, a decoy receptor peptide known to attenuate TREM1 signaling, was administered daily to pre EAE mice (10, 15 mg/kg, or saline i.p) for 10 days.
Blocking TREMi signaling genetically and pharmacologically attenuates EAE severity. To explore the biological relevance of TREMl in EAE development and progression, we assessed disease trajectory in KO EAE compared to WT EAE animals. While 83% of WT mice developed EAE, only 40% of Trem/KO mice developed symptoms during the same timeframe. […] Next, to determine if blocking TREM I signaling during disease development could have therapeutic effects, we treated WT EAE animals with LP 17 (10 or 15 mg/kg)—a 17 mer peptide decoy receptor, previously shown to attenuate TREMi signaling (25, 38)—and compared disease progression to vehicle (saline) treated mice.
LPI 7 peptide (sequence: […] […]) was synthesized by the Protein and Nucleic Acid Core Facility at Stanford University as previously described (J 9). WT EAE mice were induced with EAE and monitored daily as previously outlined. […] LP 17 or saline was administered daily (i.p) for 10 days and disease level was recorded.

T1 sequence (P50637 whole entry): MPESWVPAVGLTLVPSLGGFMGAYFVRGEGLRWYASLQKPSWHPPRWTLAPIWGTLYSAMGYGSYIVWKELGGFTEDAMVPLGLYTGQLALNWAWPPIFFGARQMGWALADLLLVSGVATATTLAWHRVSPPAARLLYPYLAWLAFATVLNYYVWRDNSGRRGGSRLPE

CCN(CC)C(=O)[C@H]1CCCc2c1c1c(OC)cccc1n2CC[18F] [[^18F]GE-180]
TSPO-PET signal in the brain (TSPO; EAE vs naive mice): no significant differences | TSPO-PET uptake in cervical/thoracic and lumbar spinal cords (TSPO; EAE vs naive mice, 50-60 min post-injection): significantly reduced uptake | CNS tracer binding (TSPO; control mice (CFA emulsion without MOG) vs naive untouched mice): decreased

CC(C)[C@]12O[C@H]1[C@@H]1O[C@]13[C@]1(O[C@H]1C[C@H]1C4=C(CC[C@@]13C)C(=O)OC4)[C@@H]2O [triptolide]
pro-inflammatory mediators and survival (TREM1): reduce pro-inflammatory mediators and increase survival

LP17: 17 mer peptide decoy receptor attenuating TREM1 signaling; sequence LQVTDSGL YRCVIYHPP (LQVTDSGLYRCVIYHPP)
EAE disease severity (TREM1 signaling; 10 mg/kg daily i.p. for 10 days from pre EAE stage): not | EAE disease severity (TREM1 signaling; 15 mg/kg daily i.p. for 10 days from pre EAE stage): Significant attenuation of disease severity | pro-inflammatory mediators and survival (TREM1): reduce pro-inflammatory mediators and increase survival
